Source: patent US20110306638A1, “BENZISOXAZOLE PIPERIDINYL DERIVATIVES, PHARMACEUTICAL COMPOSITIONS COMPRISING THE DERIVATIVES AND THEIR USE” (NHWA PHARMA. CORPORATION, priority 2008, published 2011)
Marks after values point to notes of the source that are not given here.

How the values were obtained:
[1] = system: Salmonella typhimurium histidine auxotroph mutants TA97, TA98, TA100 and TA102; test: Bacterial reverse mutation test (Ames test); type: cell-based; settings: 5-5000 μg/plate, −S9 and +S9
Description: Bacterial reverse mutation test on compound I-20 was performed on Salmonella typhimurium histidine auxotroph mutants TA97, TA98, TA100 and TA102 (purchased from MolTox company) using conventional procedures of Ames test.
Observation period: colony counting was done 48 hours after cultivation at 37° C.
Drug solutions with different concentrations were prepared with double distilled water, and the doses were 5, 50, 500, 1000, 5000 μg/plate.
Direct effect of the test drug in the absence of metabolic activity was determined by standard plate incorporation assay. The composition of the test top layer was: 2.0 ml top layer, 0.1 ml drug solution, 0.1 ml bacteria solution and 0.5 ml phosphate buffer.
Pre-incubation was used in the determination of the drug's mutagenic effect in the presence of metabolic activity. The composition of the test top layer is: 2.0 ml top layer, 0.1 ml drug solution, 0.1 ml bacteria solution and 0.5 ml S9 mix.
The resulting drug solution, bacterial solution and S9 mix were first incubated at 35° C. for 30 min while shaking, and then tested according to standard plate incorporation assay. Each dose was tested in three plates, each mutant was tested in the absence or presence of metabolic activity (−S9 or +S9) and repeated twice, the number of revertant colonies was calculated as x±SD.

[2] = molecular target: T1, 5-HT reuptake by brain synapses (Rattus norvegicus, UniProt P31652); test: [3H]5-HT reuptake test in rat brain synapses; type: biochemical
T1 construct: forehead cortex was obtained for [^3H]5-HT, [^3H]NA reuptake test; from tissue; host or cells: rat (SD) forebrain cortex synaptosomes
T1 sequence (P31652 whole entry): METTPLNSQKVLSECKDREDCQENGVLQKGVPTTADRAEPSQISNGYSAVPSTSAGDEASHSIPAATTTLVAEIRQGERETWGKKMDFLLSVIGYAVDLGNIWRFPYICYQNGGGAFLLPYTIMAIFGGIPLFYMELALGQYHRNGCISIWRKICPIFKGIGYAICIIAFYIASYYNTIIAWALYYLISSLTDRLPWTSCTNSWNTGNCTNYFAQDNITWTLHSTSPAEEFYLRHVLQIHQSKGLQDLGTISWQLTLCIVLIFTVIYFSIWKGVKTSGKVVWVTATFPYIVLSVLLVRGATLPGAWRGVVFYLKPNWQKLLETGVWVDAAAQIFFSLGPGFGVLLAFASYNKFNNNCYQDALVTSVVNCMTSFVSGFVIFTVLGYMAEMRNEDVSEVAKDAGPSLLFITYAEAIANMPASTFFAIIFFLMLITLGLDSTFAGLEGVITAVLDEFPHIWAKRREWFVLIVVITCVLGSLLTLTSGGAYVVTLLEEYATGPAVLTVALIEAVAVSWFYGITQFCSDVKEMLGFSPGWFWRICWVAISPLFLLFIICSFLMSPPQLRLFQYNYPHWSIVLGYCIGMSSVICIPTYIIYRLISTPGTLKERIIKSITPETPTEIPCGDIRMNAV
Description: The method was as follows:
Male SD rats were killed by cervical dislocation, heads were immediately cut and brains were obtained and put on ice, related brain tissues were dissected (forehead cortex was obtained for [^3H]5-HT, [^3H]NA reuptake test, corpus striatum was obtained for [^3H]DA reuptake).
After the sample was weighed, 10 folds (V/W) ice cold 0.32 mol/L sucrose solution was added.
According to [a. […] 5-HT was added and after incubation in water bath at 37° C. for 10 min, the reaction mixture was immediately taken out of the water bath and 2 ml ice cold 150 mmol/L Tris-HCl was added to terminate the reaction. The sample was collected on a round glass fiber filter by vacuum filtration and washed three times with 3 ml ice cold Tris-HCl buffer. The filter membrane was removed, dried in a far-infrared oven for 15 min, then transferred into a EP tube, in which 1.5 ml scintillation fluid was added, left overnight and detected by a scintillation counter. The test sample was not added into solvent controlled overall binding tube or non-specific binding tube. 50 μl solvent was added into the overall binding tube, and in [^3H] 5-HT reuptake test, 600 μmol/L cocaine was added into the non-specific binding tube.

[3] = system: mice; test: Sedative effects in mice (spontaneous activities); type: in vivo; parameters: unit not given here; settings: single dose 20 mg/kg
Description: Spontaneous activities of the mice were recorded by alternating current tube, Sedative effects were tested after single dose (20 mg/kg).

Question: Which Ames test result [1] does the source give for `N#Cc1ccc2ccn(CCCCN3CCC(c4noc5cc(F)ccc45)CC3)c2c1` [II-9, 1-(4-(4-(6-fluorobenzo[d]isoxazol-3-yl)piperidin-1-yl)butyl)-1H-indole-6-carbonitrile] here?
Answer: negative

Question: And the “inhibitory activity on 5-HT reuptake (in words)” value ([2]; at 10 μmol/L, compared with Dutoxetine)?
Answer: potent inhibitory activities

Question: And the inhibition at 10 µM ([2]; final concentration 10 umol/L, rat brain synapses, read-out: 5-HTU [3H] 5-HT reuptake inhibition percentage Mean)?
Answer: 105%

Question: What about the Sedative effect [3] of the same compound?
Answer: 47*
